Assay results as given in patent US8524861B2, “Treatment of bacterial infections” (priority 2004, dated 2013).
“Also recorded” adds a separate entry of the source.

Key:
[1] = test system: bacteria; conditions: Peptides, 21: 327-330 (2000); cited from earlier work
[2] = test system: Saccharomyces cerevisiae yeast cells (strain GenT01); assay: Gentronix GreenScreen GC yeast genotoxicity assay; format: cell-based; conditions: concentrations up to and including 100 μM, FIGS. 6A-6C
Method: A liquid handling robot is used to produce a serial dilution series of each test compound in a 96-well, black microplate with an optically clear base. […] In addition, a series of genotoxic and cytotoxic standards and non-toxic controls are run to provide internal quality control. The plates are covered with a breathable membrane and incubated overnight, without shaking, at 25° C.
After incubation, the microplates are uncovered and data collected using a Tecan Ultra 384 microplate reader. This instrument provides measurements of light absorbance and fluorescence in microplates; a standard fluorescein filter set (excitation 485/25 and emission 535/25) is used. Absorbance is read at 620 nm and is proportional to cell proliferation (which is lowered by toxic analytes). Fluorescence is proportional to the activity of the DNA repair system (increased by genotoxic analytes). The yeast cultures used are a genetically modified strain that express a green fluorescent protein whenever the cells carry out DNA damage repair. Fluorescence is normalised to the absorbance signal to correct for variation in cell yield caused by any cytolytic activity of the test compounds against the yeast cells. This produces a “fluorescence per cell” measurement termed “brightness”. In addition to the Gentronix Assay yeast strain (GenT01), a control Saccharomyces cerevisiae strain (GenC01) is also used, which is identical except for its ability to produce green fluorescent protein is disabled. This strain is used to provide a control to allow correction for substances which may be either autofluorescent themselves or which induce an autofluorescence in the yeast cells. The data collected is simply transferred into a Excel template where result evaluation sheets are automatically produced. The sheets contain the processed results in both a graphical and tabulated format, with automatic assessment of the result, i.e. positive or negative, and calculation of the lowest effective concentration (LEC), for both genotoxicity and cytotoxicity. […]

[3] = test system: Staphylococcus aureus (ATCC strain 6538P); format: cell-based; conditions: ATCC strain 6538P
Method: (§1) Bacterial Stocks—ATCC derived stock bacteria were obtained from Oxoid Limited. Pseudomonas aeruginosa (ATCC strain 9027) or Staphylococcus aureus (ATCC strain 6538P) were obtained in ‘Cultiloop’ format. Stocks were prepared by inoculating 20 ml of LB broth with a single Cultiloop, and incubating overnight at 37° C. Cells present after overnight incubation were harvested by removing larger aggregates by centrifugation (3000 g, 10 minutes), and withdrawing 16 ml of the supernatant, which was likely to contain mainly planktonic bacteria. To this, 4 ml of sterile glycerol was added (the latter having been sterilised by autoclaving). The resultant suspension was divided between 15× 1 ml cryovials before freezing at −85° C.
(§2) Preliminary experiments were carried out to estimate the amount to dilute bacterial stocks which when on addition of 25 μl of diluted stock to 100 μl of fresh LB broth would result in bacteria in log phase growth after overnight incubation at 37° C.
(§3) The peptides were examined for antibacterial efficacy against Staphylococcus aureus. To test the efficacy of peptides, dilutions of test peptides or PBS (for use as a control) were prepared in LB broth, and 100 μl aliquots of these placed in 96-well plates. A vial of planktonic bacterial stock was thawed in a 37° C. incubator and diluted to the level previously determined which would produce log phase growth after overnight incubation (see above). 25 μl of this bacterial dilution was then added to the test wells (some wells containing LB broth without peptide were left without any bacterial inoculation, these being used as a blank). After overnight growth, the concentration of bacteria in individual wells was assessed by measuring absorbance at 620 nm, in a microplate spectrophotometer. The average absorbance of wells for specific concentrations of peptides was calculated, and from this the percentage inhibition (relative to untreated wells) was also calculated and plotted against concentration (along with an estimate of error on that % inhibition).
(§4) The inventor constructed an expanded library of peptides derived from either apolipoprotein B or apolipoprotein E in order to further evaluate polypeptides in accordance with the invention. Further experiments were then conducted to investigate the antibacterial activity of this peptide library against the bacteria P. aeroginosa, S. aureus and S. pneumoniae. The methods used to determine the IC50 values for each peptide were as described in the Example 1.

[4] = test system: Pseudomonas aeruginosa (ATCC strain 9027); format: cell-based
Method: as §1, §2, §3
Peptides in accordance with the invention were also examined for antibacterial efficacy against Pseudomonas aeruginosa using the same technique as described above to calculate the IC50 values.
Points were obtained by dividing the average for six treated wells by the average for six untreated wells, and bars show an estimate of the error for these calculated values.
as §4

[5] = test system: Staphylococcus aureus, Pseudomonas aeruginosa, and Streptococcus pneumoniae; assay: Antibacterial activity, overall statements over the test bacteria; format: cell-based
Excerpt: The inventors conducted exhaustive experiments to assess the antibacterial activity of peptides from apolipoproteins and derivatives thereof. Peptides and derivatives from ApoE and ApoB were a particular focus. […] Example 1 illustrates the efficacy of the polypeptides according to the invention compared to apoE141-149 and apoB3359-3367 (i.e. non-tandem repeats) and other peptides derived from apolipoproteins.
The activity of polypeptides in accordance with the invention can be seen in Tables 5, 6, 7 and 8.
as §3, §4

[6] = test system: Streptococcus pneumoniae; format: cell-based
Method: as §3, with “inhibition). […] The inventor constructed an expanded library of peptides derived from either apolipoprotein B or apolipoprotein E in order to further evaluate polypeptides in accordance with the invention. Further experiments were then conducted to investigate the antibacterial activity of this peptide library against the bacteria P. aeroginosa, S. aureus and S. pneumoniae. The methods used to determine the IC50 values for each peptide were as described in the Example 1.” for “inhibition).”

Substance | Antibacterial activity reported by Azuma et al., in words [1] | Genotoxic response in test yeast strain (GenT01) [2] | other results
LRVRLASHLRKLRKRLLRDADDLQKRLAVY [apoE133-162, 30-mer monomeric peptide of Azuma et al] | comparable with that of the antibiotic gentamicin |  | 
Ac-WRKWRKRWWLRKLRKRLL-NH2 [GIN 34] |  | failed to produce any genotoxic response | IC50 [3]: 7 µM; IC50 ([4]; ATCC strain 9027): 3 µM; Effectiveness against Pseudomonadales, in particular P. aeruginosa, in words ([4]; summary in description): particularly effective; Antibacterial activity, in words, bacterium not specified [5]: particularly effective
apoE134-159: Azuma's shorter apoE peptides, label printed for both a 22 and a 26 amino acid peptide (RVRLASHLRKLRKRLLRDADDLQKRL; UniProt P02649 152-177, looked up, fragment) | very low antibacterial activity; also recorded: greatly reduced antibacterial activity |  | 
Ac-WRWRKRWRKWRWRKRWRK-NH2 [MU_27] |  | failed to produce any genotoxic response | IC50 [6]: 46 µM
apoE134-155: Azuma's shorter apoE peptide, stated as 18 amino acids in length (RVRLASHLRKLRKRLLRDADDL; UniProt P02649 152-173, looked up, fragment) | no activity at all |  | 
